The results in this text go back to patent US7855213B2 (AstraZeneca AB, priority 2006, dated 2010).

Where a name gives a salt, the structure may show the parent alone.

T1 sequence (P56817 22-460): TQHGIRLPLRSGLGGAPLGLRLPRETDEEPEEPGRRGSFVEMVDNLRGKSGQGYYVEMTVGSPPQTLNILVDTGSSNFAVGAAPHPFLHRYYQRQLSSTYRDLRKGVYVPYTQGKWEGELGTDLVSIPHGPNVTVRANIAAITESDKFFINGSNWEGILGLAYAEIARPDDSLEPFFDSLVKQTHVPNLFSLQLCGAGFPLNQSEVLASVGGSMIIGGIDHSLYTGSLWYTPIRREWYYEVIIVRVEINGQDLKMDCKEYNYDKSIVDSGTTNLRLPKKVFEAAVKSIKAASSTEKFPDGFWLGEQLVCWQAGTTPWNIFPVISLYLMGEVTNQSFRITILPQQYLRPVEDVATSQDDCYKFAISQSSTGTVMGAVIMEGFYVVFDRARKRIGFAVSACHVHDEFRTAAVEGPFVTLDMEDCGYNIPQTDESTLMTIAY

This assay concerns the target T1, human β-Secretase (Homo sapiens, UniProt P56817).
T1 construct: The soluble part of the human β-Secretase (AA 1-AA 460) was cloned; made in house
Kind of assay: TR-FRET assay. It is filed as biochemical.
For `COc1cccc(-c2cccc(C3(c4ccncc4)N=C(N)c4ccccc43)c2)c1` (centres unmarked) [Example 47, 3-(3′-Methoxy-biphenyl-3-yl)-3-pyridin-4-yl-3H-isoindol-1-ylamine trifluoroacetate], half-maximal inhibition (IC50) required 55 nM. Turning to `CC1(c2cccc(-c3cncc(F)c3)c2)N=C(N)c2ccccc21` (centres unmarked) [Example 98, 1-[3-(5-Fluoropyridin-3-yl)phenyl]-1-methyl-1H-isoindol-3-amine acetate], the IC50 (in general, the concentration that inhibits the measured activity by half) stood at 2000 nM. As to `CCc1cc(C2(c3cccc(-c4cccnc4F)c3)N=C(N)c3ccccc32)ccn1` (centres unmarked) [Example 112, 1-(2-Ethylpyridin-4-yl)-1-[3-(2-fluoropyridin-3-yl)phenyl]-1H-isoindol-3-amine], 96 nM corresponded to half-maximal inhibition (IC50).

For `CC(C)C1(c2cccc(-c3cncnc3)c2)N=C(N)c2ccccc21` (centres unmarked) [Example 97, 1-Isopropyl-1-(3-pyrimidin-5-ylphenyl)-1H-isoindol-3-amine acetate], the IC50 amounted to 1000 nM. With `NC1=NC(c2cccc(-c3cncnc3)c2)(c2ccnc(Cl)c2)c2ccccc21` (centres unmarked) [Example 122, 1-(2-Chloropyridin-4-yl)-1-(3-pyrimidin-5-ylphenyl)-1H-isoindol-3-amine], the IC50 was found to be 160 nM. Regarding `CC1(c2cccc(-c3cccnc3F)c2)N=C(N)c2ccccc21` (centres unmarked) [Example 96, 1-[3-(2-Fluoropyridin-3-yl)phenyl]-1-methyl-1H-isoindol-3-amine acetate], the IC50 is 2200 nM.

`NC1=NC(c2ccncc2)(c2cccc(-c3cccnc3)c2)c2cc(F)ccc21` (centres unmarked) [Example 83, 6-Fluoro-1-pyridin-4-yl-1-(3-pyridin-3-ylphenyl)-1H-isoindol-3-amine] showed an IC50 of 75 nM.

Compound `NC1=NC(c2ccc(C(F)(F)F)cc2)(c2cccc(-c3cncc(F)c3)c2)c2ccccc21` (centres unmarked) [Example 59, 1-[3-(5-Fluoropyridin-3-yl)phenyl]-1-[4-(trifluoromethyl)phenyl]-1H-isoindol-3-amine 0.25 acetate] had an IC50 of 630 nM. As to `COc1cccc(-c2cc(C3(c4ccncc4F)N=C(N)c4ccccc43)ccc2F)c1F` (centres unmarked) [Example 101, 1-(2′,6-Difluoro-3′-methoxybiphenyl-3-yl)-1-(3-fluoropyridin-4-yl)-1H-isoindol-3-amine], the IC50 was 230 nM. Next, `COc1cncc(-c2cccc(C3(c4ccc(OS(C)(=O)=O)cc4)N=C(N)c4ccccc43)c2)c1` (centres unmarked) [Example 39, Methanesulfonic acid 4-{3-amino-1-[3-(5-methoxy-pyridin-3-yl)-phenyl]-1H-isoindol-1-yl}-phenyl ester trifluoroacetate]: 350 nM; `COc1cccc(-c2cccc(C3(c4ccncc4F)N=C(N)c4ccccc43)c2)c1F` (centres unmarked) [Example 100, 1-(2′-Fluoro-3′-methoxybiphenyl-3-yl)-1-(3-fluoropyridin-4-yl)-1H-isoindol-3-amine]: 220 nM. As for `NC1=NC(c2ccc(O)cc2)(c2ccc(O)cc2)c2ccccc21` [Example 6, 4,4′-(3-Amino-isoindole-1,1-diyl)-bis-phenol], half-maximal inhibition (IC50) was put at 3520 nM. Compound `NC1=NC(c2ccc(OC(F)(F)F)cc2)(c2cccc(-c3cncc(F)c3)c2)c2ccccc21` (centres unmarked) [Example 56, 1-[3-(5-Fluoropyridin-3-yl)phenyl]-1-[4-(trifluoromethoxy)phenyl]-1H-isoindol-3-amine 0.75 acetate] yielded an IC50 of 200 nM. The compound `NC1=NC(c2cccc(OS(=O)(=O)C(F)(F)F)c2)(c2ccc(F)c(-c3cccnc3F)c2)c2ccccc21` (centres unmarked) [Example 135] displayed an IC50 of 269 nM. As for `COc1ccc(C2(c3cccc(-c4cc(Cl)cc(Cl)c4)c3)N=C(N)c3ccccc32)cc1` (centres unmarked) [Example 88, 1-(3′,5′-Dichlorobiphenyl-3-yl)-1-(4-methoxyphenyl)-1H-isoindol-3-amine acetate], half-maximal inhibition (IC50) was put at 65 nM. The figure for `COc1ccc(C2(c3cccc(-c4ccsc4C=O)c3)N=C(N)c3ccccc32)cc1` (centres unmarked) [Example 48, 3-{3-[3-Amino-1-(4-methoxyphenyl)-1H-isoindol-1-yl]phenyl}thiophene-2-carbaldehyde 1.5 acetate] is 300 nM. `COc1ccc(C2(c3ccc(O)c(-c4cccc(OC)c4)c3)N=C(N)c3ccccc32)cc1` (centres unmarked) [Example 4, 5-[3-Amino-1-(4-methoxy-phenyl)-1H-isoindol-1-yl]-3′-methoxy-biphenyl-2-ol trifluoroacetate]: the IC50 worked out at 67 nM. The compound `NC1=NC(c2ccncc2)(c2cccc(-c3cccnc3F)c2)c2ccccc21` (centres unmarked) [Example 42, 3-[3-(2-Fluoro-pyridin-3-yl)-phenyl]-3-pyridin-4-yl-3H-isoindol-1-ylamine trifluoroacetate] returned an IC50 of 110 nM.

`NC1=NC(c2ccncc2)(c2cccc(-c3cncc(F)c3)c2)c2ccccc21` (centres unmarked) [Example 67, 1-[3-(5-Fluoropyridin-3-yl)phenyl]-1-pyridin-4-yl-1H-isoindol-3-amine 0.75 acetate] showed an IC50 of 92 nM. For the compound `NC1=NC(c2cncc(F)c2)(c2cccc(-c3cncnc3)c2)c2ccccc21` (centres unmarked) [Example 125, 1-(5-Fluoropyridin-3-yl)-1-(3-pyrimidin-5-ylphenyl)-1H-isoindol-3-amine], the midpoint of inhibition, the IC50, lay at 810 nM.

As to `COc1cncc(-c2cccc(C3(c4ccncc4)N=C(N)c4ccc(F)cc43)c2)c1` (centres unmarked) [Example 85, 6-Fluoro-1-[3-(5-methoxypyridin-3-yl)phenyl]-1-pyridin-4-yl-1H-isoindol-3-amine], the IC50 was 45 nM.

Regarding `COc1cccc(-c2cccc(C3(c4ccc(OC)c(C)c4)N=C(N)c4ccccc43)c2)c1` (centres unmarked) [Example 20, 3-(3′-Methoxy-biphenyl-3-yl)-3-(4-methoxy-3-methyl-phenyl)-3H-isoindol-1-ylamine trifluoroacetate], the half-inhibitory concentration (IC50) amounted to 101 nM.

`NC1=NC(c2ccc(F)c(-c3cncnc3)c2)(c2ccncc2F)c2ccccc21` (centres unmarked) [Example 74, 1-(3-Fluoropyridin-4-yl)-1-(4-fluoro-3-pyrimidin-5-ylphenyl)-1H-isoindol-3-amine 1.25 acetate] yielded an IC50 of 150 nM. Regarding `NC1=NC(c2ccncc2)(c2cccc(-c3cccnc3)c2)c2ccccc21` (centres unmarked) [Example 44, 3-Pyridin-4-yl-3-(3-pyridin-3-yl-phenyl)-3H-isoindol-1-ylamine trifluoroacetate], the IC50 is 213 nM.

Compound `NC1=NC(c2cccc(-c3cncnc3)c2)(C2CC2)c2ccccc21` (centres unmarked) [Example 92, 1-Cyclopropyl-1-(3-pyrimidin-5-ylphenyl)-1H-isoindol-3-amine acetate] returned an IC50 of 270 nM. Compound `COc1ccc(C2(c3cccc(-c4cncc(OC)c4)c3)N=C(N)c3ccc(F)cc32)cc1` (centres unmarked) [Example 81, 6-Fluoro-1-(4-methoxyphenyl)-1-[3-(5-methoxypyridin-3-yl)phenyl]-1H-isoindol-3-amine] returned an IC50 of 26 nM. The figure for `CC1(c2cccc(-c3cc(Cl)cc(Cl)c3)c2)N=C(N)c2ccccc21` (centres unmarked) [Example 94, 1-(3′,5′-Dichlorobiphenyl-3-yl)-1-methyl-1H-isoindol-3-amine hydrochloride] is 880 nM. Next, `Cc1ccc(-c2cccc(C3(c4ccncc4)N=C(N)c4ccccc43)c2)o1` (centres unmarked) [Example 63, 1-[3-(5-Methyl-2-furyl)phenyl]-1-pyridin-4-yl-1H-isoindol-3-amine acetate]: 1100 nM; `COc1cc(OS(C)(=O)=O)cc(-c2cccc(C3(c4ccc5c(c4)OCCO5)N=C(N)c4ccccc43)c2)c1` (centres unmarked) [Example 26, 5′-(3-Amino-1-(2,3-dihydrobenzo[b][1,4]dioxin-6-yl)-1H-isoindol-1-yl)-5-methoxybiphenyl-3-yl methanesulfonate trifluoroacetate]: 1280 nM; `N#Cc1ccc(C2(c3cccc(-c4cncnc4)c3)N=C(N)c3ccccc32)cc1` (centres unmarked) [Example 58, 4-[3-Amino-1-(3-pyrimidin-5-ylphenyl)-1H-isoindol-1-yl]benzonitrile 0.25 acetate]: 710 nM.

For the compound `CC(C)Cn1cc(-c2cccc(C3(c4ccncc4)N=C(N)c4ccccc43)c2)cn1` (centres unmarked) [Example 62, 1-[3-(1-Isobutyl-1H-pyrazol-4-yl)phenyl]-1-pyridin-4-yl-1H-isoindol-3-amine 0.25], the IC50 was greater than 10000 nM.

`NC1=NC(c2cccc(OS(=O)(=O)c3c(F)cccc3F)c2)(c2cc(Cl)nc(Cl)c2)c2ccccc21` (centres unmarked) [Example 133, 3-[3-Amino-1-(2,6-dichloropyridin-4-yl)-1H-isoindol-1-yl]phenyl 2,6-difluorobenzenesulfonate] displayed an IC50 of 3240 nM. For the compound `COc1ccc(C2(c3ccc(OS(=O)(=O)C(F)(F)F)c(-c4cccc(OC)c4)c3)N=C(N)c3ccccc32)cc1` (centres unmarked) [Example 3, Trifluoro-methanesulfonic acid 5-[3-amino-1-(4-methoxy-phenyl)-1H-isoindol-1-yl]-3′-methoxy-biphenyl-2-yl ester trifluoroacetate], it took 12000 nM to reach half-maximal inhibition (IC50). Take `COc1ccc(C2(c3cccc(-c4cccc(OC)c4)c3)N=C(N)c3ccccc32)cc1` (centres unmarked) [Example 2, 3-(3′-Methoxy-biphenyl-3-yl)-3-(4-methoxy-phenyl)-3H-isoindol-1-ylamine trifluoroacetate]: the IC50 amounted to 110 nM. For the compound `COc1ccc(C2(c3cccc(-c4ccc(C)o4)c3)N=C(N)c3ccccc32)cc1` (centres unmarked) [Example 54, 1-(4-Methoxyphenyl)-1-[3-(5-methyl-2-furyl)phenyl]-1H-isoindol-3-amine 0.5 acetate], the IC50 was found to be 1000 nM. Compound `CCc1cc(C2(c3cccc(-c4cncnc4)c3)N=C(N)c3ccccc32)ccn1` (centres unmarked) [Example 111, 1-(2-Ethylpyridin-4-yl)-1-(3-pyrimidin-5-ylphenyl)-1H-isoindol-3-amine] had an IC50 of 95 nM. Compound `NC1=NC(c2ccncc2)(c2cccc(-c3ccsc3C=O)c2)c2ccccc21` (centres unmarked) [Example 61, 3-[3-(3-Amino-1-pyridin-4-yl-1H-isoindol-1-yl)phenyl]thiophene-2-carbaldehyde] yielded an IC50 of 2000 nM. `COc1cc(OS(C)(=O)=O)cc(-c2cccc(C3(c4ccc(OC)c(C)c4)N=C(N)c4ccccc43)c2)c1` (centres unmarked) [Example 25, Methanesulfonic acid 3′-[3-amino-1-(4-methoxy-3-methyl-phenyl)-1H-isoindol-1-yl]-5-methoxy-biphenyl-3-yl ester trifluoroacetate] yielded an IC50 of 86 nM.
